Source: patent publication US20230003721A1, “MITOTHERAPEUTICS FOR THE TREATMENT OF BRAIN DISORDERS” (The University of Florida Research Foundation, Inc., priority 2019, published 2023)
Counter-ions that a name gives are not always drawn. Like-named read-outs stand apart in the source and are kept apart here.

How the values were obtained:
[1] = system: primary forebrain neurons; experiment: cells; conditions: for confirmation in the re-screen: 10 replicate plates; for EC50: Mus musculus, Neuron
Protocol: Primary forebrain cell culture and maintenance. Forebrains of P0 Mt or Mt/Ai14 pups without olfactory bulbs and meninges were collected and placed in ice cold Ca^2+ and Mg^2+ free HBSS supplemented with 2 μg/ml gentamicin, 25 mM D-glucose, 1 mM pyruvate and 20 mM HEPES. Brain tissue was digested with 0.6 mg/ml papain at 37° C. for 20 min. Forebrains were washed with plating media [Neurobasal (Gibco), 5% FBS, 4 mM GlutaMAX (Gibco), 2 μg/ml gentamicin]. The tissue was gently triturated, allowed to settle and the supernatant was filtered through a 40 μm mesh-sized cell strainer. Cells were centrifuged at 420×g for 4 min and resuspended in plating media. 15,000 cells per well were plated with 2×10^8 viral particles/ml onto black Greiner μClear (Cat #781946) or Ultra-Low Base Aurora with evaporation barrier (Cat #ABE201201B) 384-well plates (80 μl/well) pre-coated with poly-D-lysine for the primary screen and rescreen, respectively. Plating and media changes were performed using an automated Biomek FX^P liquid handling workstation. Four hr after plating, 75% of the plating media was replaced by feeding media [Neurobasal-A (Gibco), 4 mM GlutaMAX (Gibco), 2 μg/ml gentamicin, 2% B27 (Gibco)]. At DIV4, 50% of the media was exchanged with fresh feeding media supplemented with 16 μM 5-Fluoro-2′-deoxyuridine (FUdR) to prevent glial cell over-growth. At DIV8 and DIV12, additional 50% media changes were made without FUdR. Cells were maintained at 37° C. and 5% CO2; plates were topped with Breathe-Easy adhesive membranes (Greiner plates) to minimize evaporation.
Compounds and compound transfer.
Imaging. Images were captured using a GE Incell 6000 system (60× objective, 0.95 NA, 16-bit images) equipped with environmental control (37° C., 5% CO2). Mt-GFP (green channel) was imaged by confocal imaging (3 slices, Δz=0.7 μm, aperture=1.0 AU, λexc=488 nm, λem=515-535 nm). Cyto-tdTomato (red channel) and MitoTracker Orange (red channel) were imaged using confocal mode (3 slices, Δz=0.7 μm, aperture=1.0 AU, λexc=561 nm, λem=569-641 nm, MitoTracker Orange) or with widefield mode (Cyto-tdTomato). TMRM imaged for the co-localization experiments with Mt-GFP was imaged using the confocal mode (3 slices, […] aperture=1.0, λexc=488, λem=569-641 nm). For the live-dead assay, primary neurons were imaged with a 20× (widefield mode, NA 0.45) objective using λexc=561 nm and λem=569-641 nm for the propidium iodide stained dead cells (red channel), and λexc=488 nm and λem=515-535 nm for the fluorescein diacetate stained live cells (green channel). 10 fields were collected from each well, and 4 wells were imaged/condition in the live-dead assay. For all other experiments, 4 fields/well were imaged unless otherwise stated.
Automated data analysis pipeline. Most experiments utilized only Mt-GFP; some utilized both Mt-GFP and Cyto-tdTomato. The Z-projected images were preprocessed using a custom Fiji macro. For preprocessing of Mt-GFP images: background was subtracted (rolling ball, radius=3), images were median filtered (radius=1) and somatic mitochondria were removed. For removal of the somatic mitochondria, they were first segmented and then a somatic mitochondrial mask overlaid on the image.

primary neurons [2] = experiment: CellTiter-Glo luminescence-based ATP assay; format: cell-based, mouse; conditions: ATP orthogonal screen, 24 h
In short: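 Primary neurons treated from DIV13 for 24 h with compound or DMSO. After part of the medium was removed, CellTiter-Glo reagent was added; plates were shaken 10 min at 200 rpm, kept 2 min in the dark at room temperature, and luminescence read as total ATP.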

primary neurons [3] = experiment: TMRM fluorescence assay of inner mitochondrial membrane potential (ΔΨm); conditions: 24 h; for TMRM Primary: primary screen, 12.5 μM
[4] = rescreen, 12.5 μM, 24 h, vs DMSO wells

| Compound | Dendritic Mt CA [1, 4] | Neurite Area [1, 4] | further results |
| --- | --- | --- | --- |
| CN1CCC(=C2c3ccccc3Sc3ccccc32)CC1 [PIMETHIXENE MALEATE] | 2.57 robust Z-scores | −2.10 robust Z-scores | ATP (primary neurons [2]): 4.56 Z-scores; TMRM Primary (primary neurons [3]): 3.95 Z-scores; TMRM Rescreen (primary neurons [3]): 5.12 Z-scores |
| Clc1ccc(Cn2c(CN3CCCC3)nc3ccccc32)cc1 [CLEMIZOLE HYDROCHLORIDE] | 2.54 robust Z-scores | −0.66 robust Z-scores | ATP (primary neurons [2]): 4.16 Z-scores; TMRM Primary (primary neurons [3]): 3.54 Z-scores; TMRM Rescreen (primary neurons [3]): 5.90 Z-scores |
| COC(=O)C[C@H]1C(C)(C)[C@@H](OC(C)=O)[C@@H]2CC3C4CC(=O)O[C@@H](c5ccoc5)[C@]4(C)CCC3[C@@]1(C)C2=O (stereo partly drawn) [DIHYDROFISSINOLIDE] | 2.77 robust Z-scores | 4.24 robust Z-scores | ATP (primary neurons [2]): 5.15 Z-scores; TMRM Primary (primary neurons [3]): 3.94 Z-scores; TMRM Rescreen (primary neurons [3]): 4.61 Z-scores |
| CCCC1O[C@@H]2C[C@H]3[C@@H]4CCC5=CC(=O)C=C[C@]5(C)[C@H]4[C@@H](O)C[C@]3(C)[C@]2(C(=O)CO)O1 (stereo partly drawn) [BUDESONIDE] | 2.16 robust Z-scores | −0.61 robust Z-scores |  |
| CC(C)CCC[C@@H](C)[C@H]1CC[C@H]2[C@@H]3CC=C4CC(=O)CC[C@]4(C)[C@H]3CC[C@]12C [CHOLEST-5-EN-3-ONE] | 2.78 robust Z-scores | −0.65 robust Z-scores |  |
| Cc1ccc([C@@H]2O[C@H](CO)[C@@H](O)[C@H](O)[C@H]2O)cc1Cc1ccc(-c2ccc(F)cc2)s1 [CANAGLIFLOZIN] | 2.93 robust Z-scores | 0.74 robust Z-scores | ATP (primary neurons [2]): 3.13 Z-scores; TMRM Primary (primary neurons [3]): 4.55 Z-scores; TMRM Rescreen (primary neurons [3]): 6.36 Z-scores |
| CN1CCN(C(c2ccccc2)c2ccccc2)CC1 [CYCLIZINE] | 2.82 robust Z-scores | −0.03 robust Z-scores | ATP (primary neurons [2]): 5.18 Z-scores; TMRM Primary (primary neurons [3]): 3.41 Z-scores; TMRM Rescreen (primary neurons [3]): 5.91 Z-scores |
| Nc1nnc(-c2cccc(Cl)c2Cl)c(N)n1 [LAMOTRIGINE] | 4.75 robust Z-scores | 1.00 robust Z-scores |  |
| O=C(/C=C/c1ccccc1)c1ccc(O[C@@H]2O[C@H](CO)[C@@H](O)[C@H](O)[C@H]2O)cc1O [2′,4′-DIHYDROXYCHALCONE 4′-GLUCOSIDE] | 4.44 robust Z-scores | −0.18 robust Z-scores |  |
| C#CCN(C)Cc1ccccc1 [PARGYLINE HYDROCHLORIDE] | 3.75 robust Z-scores | 2.51 robust Z-scores |  |
| O=C(/C=C/c1ccc(O)cc1)c1ccccc1O [2′,4-DIHYDROXYCHALCONE] | 2.57 robust Z-scores | 0.01 robust Z-scores |  |
| CC12CC3CC(C)(C1)CC(N)(C3)C2 [MEMANTINE HYDROCHLORIDE] | 3.25 robust Z-scores | 1.45 robust Z-scores | confirmation in the re-screen ([1]; 12.5 μM): weak hits |
| CC1=C(/C=C/C(C)=C/C=C/C(C)=C\C(=O)O)C(C)(C)CCC1 [ISOTRETINON] | 2.69 robust Z-scores | 0.77 robust Z-scores |  |
| O=c1c(O)c(-c2ccccc2)oc2cc(O)ccc12 [3,7-DIHYDROXYFLAVONE] | 2.78 robust Z-scores | 1.37 robust Z-scores |  |
| CN1CCc2cccc3c2[C@H]1Cc1ccc(O)c(O)c1-3 [APOMORPHINE HYDROCHLORIDE] | 2.10 robust Z-scores | −0.07 robust Z-scores |  |
| COc1cc(OC)c2c(c1)O[C@H](c1ccc(OC)c(OC)c1)[C@@H](O)C2 | 2.44 robust Z-scores | 1.87 robust Z-scores |  |
| CCN(CC)CCOCCOC(=O)C(CC)(CC)c1ccccc1.O=C(O)CC(O)(CC(=O)O)C(=O)O [OXELAIDIN CITRATE] | 2.59 robust Z-scores | −1.31 robust Z-scores | ATP (primary neurons [2]): 2.73 Z-scores; TMRM Primary (primary neurons [3]): 4.27 Z-scores; TMRM Rescreen (primary neurons [3]): 6.44 Z-scores |
| Cc1cccc(C)c1N=C1NCCCS1 [XYLAZINE] | 3.66 robust Z-scores | 0.40 robust Z-scores |  |

| Compound | Dendritic Mt CA [1, 4] | Neurite Area [1, 4] | further results |
| --- | --- | --- | --- |
| COc1ccc2c(c1)[C@]13CCCC[C@@H]1[C@H](C2)N(C)CC3 [DEXTROMETHORPHAN HYDROBROMIDE] |  |  | Dendritic Mt CA [1]: 2.38 robust Z-scores; Neurite Area [1]: 0.21 robust Z-scores |
| CN1CCOC(c2ccccc2)c2ccccc2C1 (stereo not drawn) [NEFOPAM] | 3.74 robust Z-scores | −0.44 robust Z-scores |  |
| Cc1cccc(N(C)C(=S)Oc2ccc3ccccc3c2)c1 [TOLNAFTATE] | 2.93 robust Z-scores | 1.01 robust Z-scores |  |
| C=C(C)c1cc2cc(C(C)=O)c(O)cc2o1 [EUPARIN] | 4.22 robust Z-scores | 1.17 robust Z-scores |  |
| CC[C@H]1CN2CC[C@H]1C[C@@H]2[C@@H](O)c1ccnc2ccc(OC)cc12 [HYDROQUINIDINE] | 2.19 robust Z-scores | −0.15 robust Z-scores |  |
| O=c1cc(-c2ccccc2)oc2ccc(O)cc12 [6-HYDROXYFLAVONE] | 2.88 robust Z-scores | 0.69 robust Z-scores |  |
| COc1ccc(CN(CCN(C)C)c2ccccn2)cc1 [PYRILAMINE MALEATE] | 2.65 robust Z-scores | 0.78 robust Z-scores |  |
| C#CCN(C)CCCOc1ccc(Cl)cc1Cl [CLORGILINE HYDROCHLORIDE] | 4.33 robust Z-scores | −0.36 robust Z-scores | EC50 ([1]; 24 h, read-out: Elongation (Dend Mt length) EC50): 5000 nM; EC50 ([1]; 24 h, read-out: Health (Ax Mt Circularity) EC50): 300 nM; EC50 ([1]; 24 h, read-out: Mt Content (Dend Mt CA) EC50): 1000 nM; EC50 ([1]; 24 h, read-out: Sprouting (Neurite Area) EC50): > 25000 nM |
| COc1ccc(/C=C/c2cc(O)cc(O)c2)cc1 [RESVERATROL 4′-METHYL ETHER] | 3.68 robust Z-scores | 0.02 robust Z-scores | confirmation in the re-screen ([1]; 12.5 μM): weak hits |
| O=C(CCCN1CCC(O)(c2ccc(Cl)cc2)CC1)c1ccc(F)cc1 [HALOPERIDOL] | 2.99 robust Z-scores | −2.37 robust Z-scores |  |
| CC[C@@]1(O)C(=O)OCc2c1cc1n(c2=O)Cc2cc3cc(O)ccc3nc2-1 [10-HYDROXYCAMPTOTHECIN] | 2.23 robust Z-scores | 2.29 robust Z-scores |  |
| COc1ccc2c(c1O)-c1c(OC)c(OC)cc3c1[C@H](C2)N(C)CC3 [S-ISOCORYDINE (+)] | 2.82 robust Z-scores | 0.78 robust Z-scores |  |
| CNC(=O)Oc1cccc2ccccc12 [CARBARIL] | 2.03 robust Z-scores | −0.48 robust Z-scores |  |
| O=C(CCc1ccc(O)cc1)c1c(O)cc(O)cc1O [PHLORETIN] | 2.73 robust Z-scores | 1.23 robust Z-scores |  |
| FC(F)(F)C(Cl)Br (stereo not drawn) [HALOTHANE] |  |  | Dendritic Mt CA [1]: 2.60 robust Z-scores; Neurite Area [1]: 2.65 robust Z-scores |
| AVOCATIN A | 4.14 robust Z-scores | 3.48 robust Z-scores |  |
| C[C@@H](N)[C@@H](O)c1ccccc1 [1R,2S-PHENYLPROPYLAMINE] | 3.14 robust Z-scores | 1.25 robust Z-scores |  |
| O=C(O[C@H]1CN2CCC1CC2)N1CCc2ccccc2[C@@H]1c1ccccc1 [SOLIFENACIN SUCCINATE] | 5.06 robust Z-scores | 1.42 robust Z-scores |  |
